Experimental data published in article PMC8508710, “Biochemical Characterization of 13-Lipoxygenases of Arabidopsis thaliana” (International Journal of Molecular Sciences, 2021).

Key:
LOX6 = biological target: T1, LOX6 (Arabidopsis thaliana, UniProt Q9CAG3); experiment: LOX6 activity, spectrophotometric (conjugated diene formation at 234 nm); details: for Photometry Relative activity (%) LOX6: enzyme 0.225 µg/µL incubated 10 min 30 °C with 280 µM chemical, 4.8 µM LeA, 50 mM Tris-HCl pH 7.2, vs solvent control; for Relative Activity (%) LOX6: E. coli lysate in 50 mM TRIS pH 8.0 diluted 1:10, 50 mM HEPES pH 8.0 + 1 mM metal salt, LeA, 234 nm
T1 sequence (Q9CAG3 41-917): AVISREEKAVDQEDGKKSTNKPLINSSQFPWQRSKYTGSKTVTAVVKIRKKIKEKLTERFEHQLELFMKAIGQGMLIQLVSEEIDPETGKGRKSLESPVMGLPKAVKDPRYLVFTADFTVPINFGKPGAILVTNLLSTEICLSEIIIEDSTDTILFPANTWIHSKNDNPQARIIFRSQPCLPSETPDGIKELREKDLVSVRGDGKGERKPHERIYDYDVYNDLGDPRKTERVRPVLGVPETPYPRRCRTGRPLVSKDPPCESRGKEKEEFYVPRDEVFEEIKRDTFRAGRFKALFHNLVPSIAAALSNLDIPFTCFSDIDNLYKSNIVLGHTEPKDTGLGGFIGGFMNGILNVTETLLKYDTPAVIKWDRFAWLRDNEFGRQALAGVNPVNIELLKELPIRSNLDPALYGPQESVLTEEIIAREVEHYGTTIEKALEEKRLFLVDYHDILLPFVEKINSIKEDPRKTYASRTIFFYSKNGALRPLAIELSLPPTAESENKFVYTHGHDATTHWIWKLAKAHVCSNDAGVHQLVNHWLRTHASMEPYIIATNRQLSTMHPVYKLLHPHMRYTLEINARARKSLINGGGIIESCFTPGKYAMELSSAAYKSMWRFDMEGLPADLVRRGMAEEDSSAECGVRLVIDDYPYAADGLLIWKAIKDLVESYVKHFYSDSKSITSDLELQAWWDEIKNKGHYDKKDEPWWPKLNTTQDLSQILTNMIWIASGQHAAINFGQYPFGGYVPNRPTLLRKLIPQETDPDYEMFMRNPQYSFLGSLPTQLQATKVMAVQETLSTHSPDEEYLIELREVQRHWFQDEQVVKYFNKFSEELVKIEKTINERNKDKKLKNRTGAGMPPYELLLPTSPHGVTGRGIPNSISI

LOX2 [1] = biological target: T2, LOX2 (Arabidopsis thaliana, UniProt P38418); experiment: LOX2 activity, spectrophotometric (conjugated diene formation at 234 nm); details: for Photometry Relative activity (%) LOX2: enzyme 0.225 µg/µL incubated 10 min 30 °C with 280 µM chemical, 4.8 µM LeA, 50 mM Tris-HCl pH 7.2, vs solvent control; for Relative Activity (%) LOX2: E. coli lysate in 50 mM TRIS pH 8.0 diluted 1:10, 50 mM HEPES pH 8.0 + 1 mM metal salt, LeA, 234 nm; for Mode of inhibition: Lineweaver–Burk plot, 12-OPDA tested at 226 µM; for LOX2 activity in presence of Cd2+: 9 µM LeA, 20 mM HEPES pH 8.0, control 0.8 ± 0.2
T2 sequence (P38418 71-896): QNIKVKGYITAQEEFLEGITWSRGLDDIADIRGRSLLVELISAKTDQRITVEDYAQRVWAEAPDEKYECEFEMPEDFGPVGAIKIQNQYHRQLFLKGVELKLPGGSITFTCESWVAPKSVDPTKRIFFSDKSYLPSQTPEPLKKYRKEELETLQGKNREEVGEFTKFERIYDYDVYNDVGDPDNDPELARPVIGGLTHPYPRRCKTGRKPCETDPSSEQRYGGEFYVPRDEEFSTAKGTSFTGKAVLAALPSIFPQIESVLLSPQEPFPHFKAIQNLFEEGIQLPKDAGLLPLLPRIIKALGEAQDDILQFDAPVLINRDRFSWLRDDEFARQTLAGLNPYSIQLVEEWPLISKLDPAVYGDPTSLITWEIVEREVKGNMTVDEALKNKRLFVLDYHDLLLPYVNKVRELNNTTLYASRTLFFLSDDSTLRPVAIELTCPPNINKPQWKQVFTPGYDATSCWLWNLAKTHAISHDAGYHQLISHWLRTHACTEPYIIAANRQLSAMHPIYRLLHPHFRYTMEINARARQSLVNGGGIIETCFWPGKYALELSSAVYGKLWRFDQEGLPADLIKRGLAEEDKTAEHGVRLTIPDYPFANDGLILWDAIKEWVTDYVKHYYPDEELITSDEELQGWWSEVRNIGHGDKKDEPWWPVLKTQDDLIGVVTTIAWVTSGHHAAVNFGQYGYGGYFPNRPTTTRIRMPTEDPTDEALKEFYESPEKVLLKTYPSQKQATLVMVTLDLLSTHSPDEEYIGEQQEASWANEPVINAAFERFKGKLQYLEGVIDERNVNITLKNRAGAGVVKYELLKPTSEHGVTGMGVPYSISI

LOX2 [2] = biological target: T2, LOX2; experiment: LOX2 activity, oxygen electrode (polarography); type: biochemical; parameters: made in house; host or cells: E. coli Nico21(DE3), pET15b; details: for activity at 280 µM: enzyme incubated with 280 µM chemical (1/10 vol of 2.8 mM), injected into 30 µM LeA, 50 mM Tris-HCl pH 7.2, vs solvent control, read-out: Polarography Relative Activity (%) LOX2; for Increase of LOX2 activity in comparison to control: 1 mM cation, LeA 30 µM, pH 8.0; for Relative Activity (%) LOX2: 1 mM metal salt, LeA 30 µM in 20 mM HEPES pH 8.0, oxygen consumption vs control without metal
LOX3 = biological target: T3, LOX3 (Arabidopsis thaliana, UniProt Q9LNR3); experiment: LOX3 activity, spectrophotometric (conjugated diene formation at 234 nm); details: for Photometry Relative activity (%) LOX3: enzyme 0.225 µg/µL incubated 10 min 30 °C with 280 µM chemical, 4.8 µM LeA, 50 mM Tris-HCl pH 7.2, vs solvent control; for Relative Activity (%) LOX3: E. coli lysate in 50 mM TRIS pH 8.0 diluted 1:10, 50 mM HEPES pH 8.0 + 1 mM metal salt, LeA, 234 nm; for Mode of inhibition: Michaelis–Menten, Lineweaver–Burk and Dixon plots
T3 sequence (Q9LNR3 71-919): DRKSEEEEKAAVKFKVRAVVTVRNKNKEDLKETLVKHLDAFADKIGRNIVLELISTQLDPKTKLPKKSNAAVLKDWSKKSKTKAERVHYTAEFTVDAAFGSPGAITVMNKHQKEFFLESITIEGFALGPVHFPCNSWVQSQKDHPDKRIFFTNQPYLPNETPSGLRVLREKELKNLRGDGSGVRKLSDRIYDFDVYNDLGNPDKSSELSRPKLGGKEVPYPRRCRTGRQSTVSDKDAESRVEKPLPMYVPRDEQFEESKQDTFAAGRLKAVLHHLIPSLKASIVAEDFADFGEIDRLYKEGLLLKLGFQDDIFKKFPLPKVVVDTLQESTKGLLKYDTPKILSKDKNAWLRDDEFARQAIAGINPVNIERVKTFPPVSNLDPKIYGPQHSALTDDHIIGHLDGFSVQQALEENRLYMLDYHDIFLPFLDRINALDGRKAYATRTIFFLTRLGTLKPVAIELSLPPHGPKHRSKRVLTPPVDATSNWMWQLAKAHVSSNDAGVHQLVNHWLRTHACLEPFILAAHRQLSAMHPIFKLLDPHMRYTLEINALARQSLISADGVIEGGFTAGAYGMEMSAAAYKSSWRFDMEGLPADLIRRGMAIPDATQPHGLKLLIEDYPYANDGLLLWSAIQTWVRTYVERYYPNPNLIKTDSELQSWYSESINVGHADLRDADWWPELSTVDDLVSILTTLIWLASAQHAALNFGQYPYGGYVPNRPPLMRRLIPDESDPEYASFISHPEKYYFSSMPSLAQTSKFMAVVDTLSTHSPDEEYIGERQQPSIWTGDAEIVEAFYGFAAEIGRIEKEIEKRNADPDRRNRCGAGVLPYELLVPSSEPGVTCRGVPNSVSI

| SMILES | Photometry Relative activity (%) LOX6 (LOX6) | Photometry Relative activity (%) LOX2 (LOX2 [1]) | activity at 280 µM (LOX2 [2]) | Relative Activity (%) LOX6 (LOX6) | Relative Activity (%) LOX2 (LOX2 [1]) | Relative Activity (%) LOX2 (LOX2 [2]) | Relative Activity (%) LOX3 (LOX3) | other results |
| --- | --- | --- | --- | --- | --- | --- | --- | --- |
| O=C(O)/C=C/CCCCCCCCC(=O)O [TA, traumatic acid] | 100 ± 9% | 105 ± 5% | 95 ± 8% |  |  |  |  | Photometry Relative activity (%) LOX3 (LOX3): 103 ± 4% |
| [Cl-].[Cl-].[Mg+2] [MgCl2] |  |  |  | 123±10% | 188±28% | 170 ± 18% | 108±4% | Increase of LOX2 activity in comparison to control (LOX2 [2]): 70% |
| [Ca+2].[Cl-].[Cl-] [CaCl2] |  |  |  | 107±11% | 550±40% | 690 ± 60% | 104±2% | Increase of LOX2 activity in comparison to control (LOX2 [2]): 590% |
| CCC=CCC1C(=O)C=CC1CCCCCCCC(=O)O (stereo not drawn) [12-OPDA, cis-(+)-12-oxophytodienoic acid] | 59 ± 10% | 49 ± 10% | 64 ± 4% |  |  |  |  | IC50 (LOX6): 280 to 338 µM; Mode of inhibition (LOX6; 226 µM): non-competitive; IC50 (LOX2 [1]): 280 to 338 µM; Mode of inhibition (LOX2 [1]): non-competitive; IC50 (LOX3): 130 ± 31 µM; Ki (LOX3): 13 µM; Mode of inhibition (LOX3): non-competitive or mixed; Photometry Relative activity (%) LOX3 (LOX3): 35 ± 5% |
| CC/C=C\CC1C(=O)CCC1CC(=O)OC (stereo not drawn) [MJ, methyl jasmonate] | 86 ± 6% | 62 ± 10% | 87 ± 10% |  |  |  |  | Mode of inhibition (LOX2 [1]): competitive; Ki (LOX3): 295 µM; Mode of inhibition (LOX3): non-competitive |
| O=C(O)c1ccccc1O [SA, salicylic acid] |  |  | 96 ± 7% |  |  |  |  |  |
| O=S(=O)([O-])[O-].[Cd+2] [CdSO4] |  |  |  | 40±10% | 950±240% | 220 ± 18% | 63±3% | LOX2 activity in presence of Cd2+ (LOX2 [1]; 40 µM Cd2+, listed as Cd2+): 2.3 ± 0.3 nmol/s/mg; LOX2 activity in presence of Cd2+ (LOX2 [1]; 40 µM Cd2+, listed as Cd^2+): 2.3 ± 0.3 nmol/s/mg; LOX2 activity in presence of Cd2+ (LOX2 [1]; 150 µM Cd2+, listed as Cd2+): 5.2 ± 0.9 nmol/s/mg; LOX2 activity in presence of Cd2+ (LOX2 [1]; 150 µM Cd2+, listed as Cd^2+): 5.2 ± 0.9 nmol/s/mg; LOX2 activity in presence of Cd2+ (LOX2 [1]; 1180 µM Cd2+, listed as Cd2+): 5.7 ± 0.7 nmol/s/mg; LOX2 activity in presence of Cd2+ (LOX2 [1]; 1180 µM Cd2+, listed as Cd^2+): 5.7 ± 0.7 nmol/s/mg |
